Results reported in article PMC10297291 (2023).

Assays:
[1] = test system: G4 (DNA, G4) AGGGTTAGGGTTAGGGTTAGGG; assay: thiazole orange displacement (G4-FID), fluorescence; details: 10 mM K+, 90 mM Li+, 10 mM lithium cacodylate pH 7.2, 1 µM TO displaced, 0.25 µM DNA, 3 min equilibration
[2] = test system: ds26 (DNA, duplex) CAATCGGATCGAATTCGATCCGATTG; assay: as above; details: 10 mM K+, 90 mM Li+, 10 mM lithium cacodylate pH 7.2, 1 µM TO displaced, 0.25 µM DNA, 3 min equilibration
[3] = test system: G4 (DNA, G4) AGGGTTAGGGTTAGGGTTAGGG; assay: thiazole orange displacement (G4-FID), kinetics; details: 10 mM K+, 90 mM Li+; 10 mM lithium cacodylate pH 7.2; 1 µM TO displaced, 0.25 µM DNA; resveratrol concentration not stated

O=c1c(O)c(-c2ccc(O)c(O)c2)oc2cc(O)cc(O)c12 was tested, and the binding ([1]; positive control) was “yes” and the binding ([2]; positive control) was “yes”.
In the case of O=c1cc(-c2ccccc2)oc2cc(O)cc(O)c12, the TO shift ([1]; highest concentrations) is reported as less than 20% and the TO shift ([2]; highest concentrations) is reported as less than 20%.
Oc1ccc(/C=C/c2cc(O)cc(O)c2)cc1 was tested, and the binding [3] was “no”.
